How the values were obtained:
[1] = test system: Lee aptamer (56-mer) (DNA, aptamer) AGCAGCACAGAGGTCATGGGGGGTGTGACTTTGGTGTGCCTATGCGTGCTACGGAA; assay: AuNP aggregation colorimetry (A650/A525), centrifugation and resuspension; settings: 100 mM NaCl (Na+), added after target incubation, water, 5% ethanol in target solution, room temperature; for binding: tested at 600 nM
[2] = test system: Random ssDNA (70-mer) (DNA, single strand) AGGCCTAAGGGCATAATTAGCTCGAGCTCGAAAGGGGTTATATGATGATTTGAATTCATGGGGCCCGACT; assay: as above; settings: 100 mM NaCl (Na+), added after target incubation; water, 5% ethanol in target solution, room temperature; control; VTD3 series in Figures 2C and 3B

binding [1] | SMILES | further results
 | C=C1CC[C@H](O)C/C1=C/C=C1\CCC[C@]2(C)[C@@H]([C@H](C)/C=C/[C@H](C)C(C)C)CC[C@@H]12 | binding ([1]; concentration series in Figure 2C): no
 | C=C1CC[C@H](O)C/C1=C/C=C1\CCC[C@]2(C)[C@@H]([C@H](C)CCCC(C)C)CC[C@@H]12 | binding [2]: no; Kd, app ([1]; 10 min, apparent, Langmuir fit, aptamer adsorbed on AuNP): 0.22 µM
no | CC(=O)[C@H]1CC[C@H]2[C@@H]3CCC4=CC(=O)CC[C@]4(C)[C@H]3CC[C@]12C | 
no | C[C@]12C=CC(=O)C=C1CC[C@@H]1[C@@H]2C(=O)C[C@@]2(C)[C@H]1CC[C@]2(O)C(=O)CO | 
no | C[C@]12CC[C@@H]3c4ccc(O)cc4CC[C@H]3[C@@H]1CC[C@@H]2O | 
